Measured values taken from US6596759B2, “Medicament for treatment of irritable bowel syndrome” (Mitsubishi Chemical Corporation, priority 1997, dated 2003).
Entries after “also recorded” stand apart in the source; their conditions may differ. Marks after values point to notes of the source that are not given here.

Experiments:
[1] = test system: defecation number induced by restraint stress in rats; experiment: Increase of defecation number induced by restraint stress (animal model of irritable bowel syndrome); type: in vivo; settings: rat; for Effect on the defecation-suppressing action of the medicament of the present invention (combination of drugs): other drug given 1 hour, medicament 30 minutes before the restraint, FIG. 1; for Suppression of the increase of defecation number induced by the restraint (in words): over the doses of Table 3; for Suppressive action on stress-induced defecation at a high dose (in words): high dose (amitriptyline 100 mg/kg, diazepam 30 mg/kg)
Procedure: Increase of defecation number induced by restraint stress has widely been used as a pathological model of irritable bowel syndrome (Miyata et al., J. Pharmacol. Exp. Ther., 261, pp.297-303, 1992). Therefore, pathological model animals of irritable bowel syndrome were prepared according to the method of Williams et al. (Williams et al., Gastroenterology, 94, pp.611-621, 1988) and used for evaluation of the effectiveness of the medicament of the present invention. The medicament of the present invention was administered to the rats, and after 1 hour, their forelegs were fixed on their trunks with adhesive tapes under ether anesthesia (load of restraint stress). One hour after the restraint, defecation number was counted and the number was compared with that of the control group. In the experiments using a combination of drugs, the medicament of the present invention was administered to the animals 30 minutes before the restraint, and the other drug was administered 1 hour before the restraint.

[2] = test system: defecation induced by forced swimming stress in rats; settings: rat; cited from earlier work
animal model = settings: cited from earlier work
[3] = test system: patients with irritable bowel syndrome; settings: double-blind test; cited from earlier work

SMILES	Suppression of the increase of defecation number induced by the restraint (in words) [1]	Suppression rate of defecation number (%) ([1]; oral, 10 mg/kg)	Suppression rate of defecation number (%) ([1]; oral, 30 mg/kg)	Suppression rate of defecation number (%) ([1]; oral, 100 mg/kg)	further results
c1cnc(N2CCNCC2)nc1 [1-PP, 1-(2-pyrimidinyl)piperazine]	–	–	–	–	Effect on the defecation-suppressing action of the medicament of the present invention (combination of drugs) [1]: inhibited; also recorded: antagonized
CCCN(CCC)C1CCc2cccc(O)c2C1 (stereo not shown) [8-OH-DPAT, 8-hydroxy-2-(di-n-propylamino)tetralin]	the defecation due to the stress was suppressed	–	–	–	Suppression rate of defecation number (%) ([1]; intraperitoneal, 0.03 mg/kg): 25%; Suppression rate of defecation number (%) ([1]; intraperitoneal, 0.1 mg/kg): 74* %; Suppression rate of defecation number (%) ([1]; intraperitoneal, 0.3 mg/kg): 97* %
CN(C)CCC=C1c2ccccc2CCc2ccccc21 [Amitriptyline, amitriptyline]	–	17	6%	69* %	Suppressive action on stress-induced defecation at a high dose (in words) ([1]; oral): exhibited significant suppressive actions; Efficacy on stress-induced defecation at a lower dose (in words) ([1]; oral): no efficacy
O=C1CC2(CCCC2)CC(=O)N1CCCCN1CCN(c2ncccn2)CC1 [Buspirone, buspirone]	failed to exhibit significant efficacy	12	12%	44%	Defecation suppressing activity, forced swimming stress [2]: exhibited significant defecation suppressing activity
c1ccc2c(c1)OC[C@H](CNCCCOc1ccc3c(c1)OCO3)O2 [Compound No. 1, 5-[3 [(2S)-(1,4-benzodioxan-2-ylmethyl)amino]propoxy]-1,3-benzo-dioxol]	dose-dependently suppressed	–	–	–	Suppression rate of defecation number (%) ([1]; oral, 0.3 mg/kg): 29%; Suppression rate of defecation number (%) ([1]; oral, 1 mg/kg): 45* %; Suppression rate of defecation number (%) ([1]; oral, 3 mg/kg): 81* %; Anxiolytic activity (animal model): anxiolytic activity of the medicament of the present invention was observed
CN1C(=O)CN=C(c2ccccc2)c2cc(Cl)ccc21 [Diazepam, diazepam]	–	36	77* %	–	Suppression rate of defecation number (%) ([1]; oral, 3 mg/kg): 26%; Suppressive action on stress-induced defecation at a high dose (in words) ([1]; oral): exhibited significant suppressive actions; Efficacy on stress-induced defecation at a lower dose (in words) ([1]; oral): no efficacy
CNCCC(Oc1ccc(C(F)(F)F)cc1)c1ccccc1 (stereo not shown) [Fluoxetin]	–	24	15%	26%	–
O=C1[C@@H]2[C@H]3CC[C@H](C3)[C@@H]2C(=O)N1CCCCN1CCN(c2ncccn2)CC1 [Tandospirone, tandospirone]	failed to exhibit significant efficacy	–	8%	4%	Suppression rate of defecation number (%) ([1]; oral, 300 mg/kg): 44%; Therapeutic efficacy in irritable bowel syndrome compared with a placebo [3]: failed to give a significant difference
COc1ccccc1N1CCN(CC(C(=O)NC(C)(C)C)c2ccccc2)CC1 (stereo not shown) [WAY100135, N-tert-butyl-3-(4-(2-methoxyphenyl)piperazin-1-yl)-2-phenyl-propanamide]	–	–	–	–	Effect on the defecation-suppressing action of the medicament of the present invention (combination of drugs) [1]: inhibited
